Consider ten molecules from PMC6770581, “New Thalidomide-Resembling Dicarboximides Target ABC50 Protein and Show Antileukemic and Immunomodulatory Activities” (Biomolecules, 2019).

One experiment deals with MOLT-4 cells. The experiment in a line: MTT cytotoxicity assay, MOLT-4. The experiment is classed as cell-based. The settings on record: Homo sapiens, 48 h, mean ± SD. As to the method: (§1) Human umbilical vein endothelial cells (purchased from Life Technologies, Carlsbad, CA, USA) were cultured according to the manufacturer’s instructions in Medium 200 supplemented with Low Serum Growth Supplement. 1 × 10^4 cells were seeded on each well on a 96-well plate (Nunc, Roskilde, Denmark). The HeLa (human cervix carcinoma, cat. #93021013), CFPAC (human pancreatic adenocarcinoma, cat. #91112501), K562 (chronic myelogenous leukemia, cat. #89121407), HL-60 (acute myelogenous leukemia, cat. #98070106), and MOLT-4 (Human acute T lymphoblastic leukemia, cat. #85011413) cells were purchased from European Collection of Authenticated Cell Cultures (ECACC). They were cultured in an RPMI 1640 medium supplemented with antibiotics (streptomycin, penicillin) and 10% fetal calf serum (20% for HL60), in a 5% CO2-95% air atmosphere. 7 × 10^3 cells were seeded on each well on a 96-well plate (Nunc). 24 hours later the cells were exposed to the test compounds. The aliquots of stock solutions of the test compounds (freshly prepared in DMSO) were added to the cell cultures to yield final concentrations of 1, 10^−1, 10^−2, 10^−3, 10^−4, and 10^−5 mM. The concentration of DMSO in the cell culture medium was 1%. The IC50 value (the concentration of a test compound required to reduce the cell survival fraction to 50% of the control) was calculated from a dose-response curve and used as a measure of cellular sensitivity to a given treatment. The IC50 values are given as means (± standard deviation (SD)) from 2 independent experiments with 4 technical replicates. The cytotoxicity of all compounds was determined by the MTT (3-(4,5-dimethylthiazol-2-yl)-2,5-diphenyltetrazolium bromide) assay (Sigma, St. Louis, MO, USA). Briefly, after 24 h or 48 h of incubation with a given compound, the cells were treated with the MTT reagent and incubation was continued for 2 h. MTT-formazan crystals were dissolved in 20% SDS and 50% DMF at pH 4.7 and VIS light absorption was measured at 570 and 650 nm on a microplate reader FLUOstar Omega (BMG Labtech, Offenburg, Germany). As a control (100% viability), cells grown in the presence of 1% DMSO were used.

The subject of a further experiment is CFPAC cells. The experiment in a line: MTT cytotoxicity assay, CFPAC. The experiment is classed as cell-based. The settings on record: Homo sapiens, 48 h, mean ± SD. As to the method:
as §1

Experiment [1] has as its system HeLa cells. Conditions: 48 h, MTT, mean ± SD; cited from earlier work.
Experiment [2] deals with K562 cells. The settings on record: 48 h, MTT, mean ± SD; cited from earlier work.
The next experiment deals with HL-60 cells. The settings on record: 48 h, MTT, mean ± SD; cited from earlier work.
In experiment [3] the test system is HUVEC (human umbilical vein endothelial cells). Conditions: 48 h, MTT, mean ± SD; cited from earlier work.
Experiment [4] has as its system HeLa cells. In words: MTT cytotoxicity assay, HeLa. The class given is cell-based. The settings on record: Homo sapiens, 48 h, mean ± SD. As to the method:
as §1

The test system of experiment [5] is K562 cells. The experiment in a line: MTT cytotoxicity assay, K562. The settings on record: Homo sapiens, 48 h, mean ± SD. The class given is cell-based. As to the method: as §1
The subject of experiment [6] is HUVEC (human umbilical vein endothelial cells). The experiment in a line: MTT cytotoxicity assay, HUVEC. The settings on record: 48 h, mean ± SD. The experiment is classed as cell-based. As to the method: as §1
A further experiment deals with ABC50 (Homo sapiens, UniProt Q8NE71). The experiment in a line: Streptavidin-agarose pull-down from K562 cell lysate with LC-MS-MS/MS and Western blot identification. The experiment is classed as binding. Further details: endogenous in cells; host or cells: K562 cell lysate. As to the method: Cells were lysed in TBS buffer containing 1% Triton X-100 and Complete® protease inhibitor cocktail (Roche) for 15 min on ice with occasional vortexing. Insoluble material was centrifuged (12,000 rpm, 15 min, 4 °C) and supernatants were collected. Total protein concentration was measured with DC Protein Assay (Bio-Rad, Hercules, CA, USA). Cell lysates containing 30 µg of total protein were mixed with Laemli buffer supplemented with SDS and β-mercaptoethanol, denatured (10 min, 95 °C) and subjected to sodium dodecyl sulfate polyacrylamide gel electrophoresis (SDS-PAGE) electrophoresis (4% stacking and 10% resolving gels). Resolved proteins were electrotransferred (semi-dry, 90 min, 1.5 mA/cm^2) to a 0.45 µm nitrocellulose membrane (Thermo Scientific, Waltham, MA, USA). Membranes were blocked for 2 hours in TBST buffer (20 mM Tris-HCl pH 7.5, 0.9% NaCl, 0.1% Tween 20) containing 5% BSA (BioShop, Burlington, ON, Canada) and probed with primary antibodies (overnight at 4 °C) diluted in TBST buffer with 0.5% BSA. Tubulin served as a loading control for IB experiments. Anti IKZF3 (rabbit monoclonal, dilution 1:500), anti IKZF1 (rabbit polyclonal, dilution 1:500) were from Abcam. Anti IRF4 (rabbit polyclonal, dilution 1:500) were from Cell Signaling Technology. Anti α-tubulin (mouse monoclonal IgG, 1:1000) was from Sigma Aldrich. Anti ABC50 antibodies (mouse monoclonal ABC5H06, dilution 1:100) was from Abcam. After extensive washing with TBST buffer, membranes were probed with secondary goat anti-rabbit or goat anti-mouse HRP-conjugated IgG (1:5000 in TBST, Santa Cruz Biotech, Dallas, TX, USA) for 45 min at room temperature. Membranes were washed in TBST buffer and the chemiluminescent signal was developed with ECL Plus Western Blotting Substrate (Thermo Scientific) and visualized in Syngene G:Box detection system. Protein bands intensities were analysed using Image Quant (version 5.0, GE Healthcare Life Sciences, Pittsburgh, PA, USA).
ABC50, sequence (Q8NE71 whole entry): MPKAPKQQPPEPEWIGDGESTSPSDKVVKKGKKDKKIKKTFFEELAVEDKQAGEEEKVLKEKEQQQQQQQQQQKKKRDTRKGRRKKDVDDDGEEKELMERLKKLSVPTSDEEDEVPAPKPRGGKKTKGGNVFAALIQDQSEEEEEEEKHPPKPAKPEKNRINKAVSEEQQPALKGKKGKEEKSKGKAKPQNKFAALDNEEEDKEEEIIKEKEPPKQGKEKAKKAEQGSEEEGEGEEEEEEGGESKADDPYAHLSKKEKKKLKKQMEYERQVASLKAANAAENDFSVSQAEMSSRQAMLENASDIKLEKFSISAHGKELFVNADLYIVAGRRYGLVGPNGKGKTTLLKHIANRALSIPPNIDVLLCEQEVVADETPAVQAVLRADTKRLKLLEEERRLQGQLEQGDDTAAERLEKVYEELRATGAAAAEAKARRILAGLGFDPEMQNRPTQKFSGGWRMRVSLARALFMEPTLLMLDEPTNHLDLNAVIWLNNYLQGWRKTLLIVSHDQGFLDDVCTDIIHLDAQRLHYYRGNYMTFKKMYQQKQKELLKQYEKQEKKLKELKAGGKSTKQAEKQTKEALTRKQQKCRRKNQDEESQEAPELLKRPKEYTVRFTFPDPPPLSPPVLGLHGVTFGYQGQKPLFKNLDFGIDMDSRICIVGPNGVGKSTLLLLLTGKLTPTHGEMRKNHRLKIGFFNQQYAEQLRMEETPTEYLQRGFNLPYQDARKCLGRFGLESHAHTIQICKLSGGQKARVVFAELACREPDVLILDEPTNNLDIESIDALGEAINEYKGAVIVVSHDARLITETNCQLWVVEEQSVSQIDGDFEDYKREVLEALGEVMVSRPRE
300 nmoles of biotinylated 6b was added to 0.6 mL of the high capacity streptavidin agarose resin (Thermo Scientific, Waltham, MA, USA) equilibrated in 50% DMSO and incubated for 2 h (room temperature, gently mixing, total volume 0.7 mL). The K562 cell lysate was prepared in the buffer containing 0.5% NP-40 and supplemented with protease inhibitors coctail (Roche). Next, the beads with immobilized 6b were added to the K562 cell lysate (9 mg of total protein) and incubated for 2 h at 4 °C with gently mixing. As a control, K562 cell lysate incubated with the streptavidin agarose beads was used. After incubation the beads were centrifuged (2000 rpm, 2 min, 4 °C) and washed 6 times with 5 mL of lysis buffer. After the last wash, the beads were resuspended in Laemli buffer and denatured 10 min at 95 °C. Released proteins (40 µL/well) were separated by SDS-PAGE (4% stacking, 8% resolving gel) and silver stained with Pierce Silver Stain Kit (Thermo Scientific, Waltham, MA, USA). Bands of interest were cut out of the gel and digested with trypsin. Tryptic peptides were separated by liquid chromatography (LC) and analyzed by LC-MS-MS/MS with Orbitrap mass spectrometer (Thermo). The sequences of the MS/MS spectra were identified by correlation with the human protein sequence database (Sprot 2016_11, H.) using MASCOT software (version 2.6.2, Matrix Science Inc., Boston, MA, USA) (http://www.matrixscience.com/). The significance threshold was p < 0.05 and ions score or expect cut-off was 22.

Where two headings read alike, the source gives them in different places.

In the case of `CCC12C(=O)C(CC)(C(c3ccccc3)=C1c1ccccc1)C1C(=O)N(CCN(C)C)C(=O)C12` (stereo not drawn) [Compound 1], the IC50 in the experiment with MOLT-4 cells is 20 ± 2.7 µM; in the experiment on CFPAC cells, greater than 1000 µM; with HeLa cells [1] it was greater than 100 µM; with K562 cells [2], 10 ± 0.59 µM; with HL-60 cells, greater than 100 µM; in experiment [3], greater than 100 µM.

On to `CCN(CC)CCN1C(=O)C2C(C1=O)C1(CC)C(=O)C2(CC)C(c2ccccc2)=C1c1ccccc1` (stereo not drawn) [Compound 2], for which the IC50 in the experiment with MOLT-4 cells was 30 ± 2.3 µM; in the experiment with CFPAC cells, greater than 1000 µM; in the experiment with HeLa cells [1], greater than 100 µM; with K562 cells [2], 4.5 ± 0.29 µM; in the experiment on HL-60 cells, greater than 100 µM; in experiment [3], greater than 100 µM.

In the case of `CCC12C(=O)C(CC)(C(c3ccccc3)=C1c1ccccc1)C1C(=O)N(CCCN(C)C)C(=O)C12` (stereo not drawn) [Compound 4], the IC50 in the experiment on MOLT-4 cells is 30 ± 2 µM; in the experiment with CFPAC cells, greater than 1000 µM; in the experiment on HeLa cells [1], greater than 100 µM; with K562 cells [2], 8 ± 0.53 µM; in the experiment with HL-60 cells it was greater than 100 µM; in experiment [3] it was greater than 100 µM.

For the molecule `NCC(O)CN1C(=O)C2C(C1=O)C1(c3ccccc3)CC2(c2ccccc2)C(c2ccccc2)=C1c1ccccc1` (stereo not drawn) [Compound 6a, 4-[-3-(amino)-2-hydroxypropyl]-1,7,8,9-tetraphenyl-4-azatricyclo[5.2.1.0^2,6]dec-8-ene-3,5-dione], the IC50 in the experiment on HeLa cells [4] was 20 ± 1.9 µM; in the experiment on K562 cells [5], 12 ± 1.5 µM; in experiment [6] it was greater than 100 µM; in the experiment with MOLT-4 cells, 5 ± 0.59 µM.

For the molecule `O=C(CCCCC1SCC2NC(=O)NC21)NCC(O)CN1C(=O)C2C(C1=O)C1(c3ccccc3)CC2(c2ccccc2)C(c2ccccc2)=C1c1ccccc1` (stereo not drawn) [Compound 6b], the IC50 in the experiment with HeLa cells [4] turned out to be 64 ± 10 µM; with K562 cells [5] it was 7 ± 1.2 µM; in experiment [6], 3.8 ± 0.22 µM; in the experiment on MOLT-4 cells, 1.5 ± 0.06 µM. The “Description of protein identified, band 1” value at ABC50 (K562 lysate pull-down, SDS-PAGE band No. 1, LC-MS-MS/MS) is reported as “Talin-1”. Moreover, the “Description of protein identified, band 2” value on ABC50 (K562 lysate pull-down, SDS-PAGE band No. 2, LC-MS-MS/MS) is “ATP-binding cassette sub-family F member 1 (ABCF1 or ABC50)”. For the same molecule, the “Description of protein identified, band 3” value on ABC50 (K562 lysate pull-down, SDS-PAGE band No. 3, LC-MS-MS/MS) is recorded as “ABC50”. The “Description of protein identified, band 4” value at ABC50 (K562 lysate pull-down, SDS-PAGE band No. 4, LC-MS-MS/MS) was “ABC50”. Besides, the “Description of protein identified, band 5” value on ABC50 (K562 lysate pull-down, SDS-PAGE band No. 5, LC-MS-MS/MS) was “ABC50”. In addition, the “Description of protein identified, band 6” value on ABC50 (K562 lysate pull-down, SDS-PAGE band No. 6, LC-MS-MS/MS) is on record as “ABC50”. In addition, the “protein identified by mass spectrometry in pulled-down bands” value on ABC50 (K562 lysate, immobilized on streptavidin-agarose, five out of six bands) was “ABC50 protein was identified and significantly enriched”. Further, at ABC50 (K562 lysate, mouse monoclonal anti ABC50 antibodies), the “Western blot analysis of pull-down material for ABC50” value was “confirmed the presence of ABC50”.

As to `CC(C)C[C@H](NC(=O)[C@H](Cc1ccccc1)NC(=O)c1cnccn1)B(O)O` [bortezomib, reference compound], the IC50 with HeLa cells [1] is 0.05 ± 0.01 µM; in the experiment on K562 cells [2], 0.04 ± 0.01 µM; with HL-60 cells it was 0.3 ± 0.1 µM; in [3] it was less than 0.01 µM.

Turning to `Nc1ccn([C@@H]2O[C@H](CO)[C@@H](O)[C@@H]2O)c(=O)n1` [cytarabine, reference compound], the IC50 in the experiment on HeLa cells [1] was greater than 1000 µM; in the experiment with K562 cells [2], 300 ± 19 µM; in the experiment on HL-60 cells it was 300 ± 18 µM; in [3], greater than 1000 µM.

`COc1cccc2c1C(=O)c1c(O)c3c(c(O)c1C2=O)C[C@@](O)(C(=O)CO)C[C@@H]3O[C@H]1C[C@H](N)[C@H](O)[C@H](C)O1` [doxorubicin, reference compound]: the IC50 in the experiment on HeLa cells [1] is 0.5 ± 0.01 µM; with K562 cells [2] it was 0.15 ± 0.01 µM; in the experiment with HL-60 cells it was 0.15 ± 0.03 µM; in experiment [3], 0.1 ± 0.03 µM.

Take `CCc1c2c(nc3ccc(OC(=O)N4CCC(N5CCCCC5)CC4)cc13)-c1cc3c(c(=O)n1C2)COC(=O)[C@]3(O)CC` [irinotecan, reference compound]: the half-inhibitory concentration (IC50) with HeLa cells [1] was 200 ± 11 µM; in the experiment on K562 cells [2] it was 10 ± 0.9 µM; with HL-60 cells it was 70 ± 2.5 µM; in [3] it was 30 ± 3.7 µM.

With `CNC(=O)c1cc(Oc2ccc(NC(=O)Nc3ccc(Cl)c(C(F)(F)F)c3)cc2)ccn1` [sorafenib, reference compound], the half-maximal inhibitory concentration (IC50) is 20 ± 2.6 µM with HeLa cells [1], 3 ± 0.3 µM with K562 cells [2], 15 ± 0.6 µM with HL-60 cells and 20 ± 4.1 µM in experiment [3].
